Key:
Type in all cases: in vivo, zebrafish
[1] = system: hCLRN1^N48K-YFP; experiment: Hair bundle localization of hCLRN1^N48K-YFP (YFP intensity) in neuromast hair cells of live larvae treated with SERCA inhibitors; parameters: key: “—” = The YFP intensity in the bundle is similar to untreated control.; “+” = The YFP intensity in the bundle is higher compared to untreated control; details: ART 0.25 μM
[2] = system: hCLRN1^N48K-YFP; clrn1^+/+ larvae; experiment: Larval survival/lethality by TG or ART dose and treatment duration; parameters: key: ‘S’ =Surviving; ‘L’ = Lethal; ‘S/L’ Larvae surviving with apoptosis/necrosis of hair cells
Description: Thapsigargin (TG, 1 mg, Sigma-Aldrich, #T9033) stock in 100% DMSO was diluted in E3 medium to make the required final concentration of the drug. Five different concentrations that were earlier reported to induce ER stress and are non-toxic or lower lethal dose (LD50) in the zebrafish (0.1, 0.5, 1.0, 2.5, 5 μM concentrations) were used in this study. A total of 25 larvae per dosage and treatment duration from the genotypes hCLRN1^N48K-YFP; clrn1^+/+ and hCLRN1-YFP; clrn1^+/+, no older than 72 hours post fertilization (hpf) at the start of the experiment, were placed in a well of 12-well uncoated culture plate (BD Falcon, Canaan, CT). For ER stress induction, larvae were incubated in different dosage of TG from 1 hr to overnight at 28.5° C., followed by three times wash with E3 medium at 28.5° C. (Table 2) and hair cells from the hCLRN1^N48K-YFP; clrn1^+/+ and hCLRN1-YFP; clrn1^+/+ lines were examined for the respective protein distribution pattern in the hair cell bundle and the cell body. Live confocal images of ‘O’ and ‘ML1’ neuromasts per larvae were capture using Leica SP2 confocal microscope with 40× oil immersion objective. Unadjusted 1 micron middle section images of four hair bundles per ML1 neuromast of larvae from TG treated and untreated groups were analyzed using Image J software version v. 1.48 (FIG. 4). The hair bundle trafficked amount of hCLRN1^N48K protein corresponds to the change in YFP intensity in the hair bundle in the TG treated larvae. Quantification of YFP fluorescence intensity was carried out as described in the previous experiment for unconventional trafficking of hCLRN1^N48K-YFP by hGRASP55 cargos. […] Student's t-test was used to confirm the observed changes in the YFP intensity in the hair bundles of TG treatment compared to untreated hCLRN1^N48K-YFP; clrn1^+/+ larvae, is significant (FIG. 4J).
Arthemisinin (ART, 100 mg, Sigma-Aldrich, #361593) in 100% DMSO was diluted in E3 medium to make the final concentration. Five different concentrations within the range of reported ER stress inducing level in the zebrafish (0.1, 0.25, 0.4, 0.5, and 1 μM concentrations) were used in this study. A total of 25 larvae, no older than 72 hpf at the start of the experiment, were placed in a well of 12-well uncoated culture plate (BD 35 Falcon, Canaan, CT). For ER stress induction, larvae were exposed in different dosage of ART for different duration at 28.5° C. (Table 3) and washed three times with E3 medium, and hair cells from the hCLRN1-YFP; clrn1^+/+ larvae and hCLRN1^N48K-YFP; clrn1^+/+ larvae were examined for the respective protein distribution pattern in the hair cell bundle and the cell body. Live confocal Z-stack images of otic ‘O’ and middle ‘ML’ neuromasts per larvae of hCLRN1-YFP; clrn1^+/+ larvae and hCLRN1^N48K-YFP; clrn1^+/+ genotypes from the untreated group in the E3 medium, 0.01% DMSO treatment group and ART treatment group were capture using Leica SP2 confocal microscope at 40× oil immersion objective. Hair cells from 2 otic (0) and 2 middle (ML) neuromasts per larvae were examined for the change in YFP intensity in the hair bundle and cell body. From the captured confocal images of these neuromast hair cells, unadjusted 1 micron middle section images of 4 mature hair bundles from ML1 neuromast per larvae were considered for the YFP intensity quantification in unadjusted ROI covering the middle section of each hair bundles using the imageJ software. […] The hair bundle trafficked amount of hCLRN1^N48K protein corresponds to the change in YFP intensity in the hair bundle in the ART treated larvae. Quantification of YFP fluorescence intensity was carried out as described in the previous experiment for unconventional trafficking of hCLRN1^N48K-YFP by hGRASP55 cargos. Student's t-test was used to confirm the observed changes in the YFP intensity in the hair bundles of ART treatment compared to untreated and TG treated hCLRN1^N48K-YFP; clrn1^+/+ larvae, is significant (FIG. 4J).

[3] = system: hCLRN1^N48K-YFP; clrn1^+/+ larvae; experiment: as above; details: TG dosages higher than 1 μM or longer treatment duration
Description: Thapsigargin (TG, 1 mg, Sigma-Aldrich, #T9033) stock in 100% DMSO was diluted in E3 medium to make the required final concentration of the drug. Five different concentrations that were earlier reported to induce ER stress and are non-toxic or lower lethal dose (LD50) in the zebrafish (0.1, 0.5, 1.0, 2.5, 5 μM concentrations) were used in this study. A total of 25 larvae per dosage and treatment duration from the genotypes hCLRN1^N48K-YFP; clrn1^+/+ and hCLRN1-YFP; clrn1^+/+, no older than 72 hours post fertilization (hpf) at the start of the experiment, were placed in a well of 12-well uncoated culture plate (BD Falcon, Canaan, CT). […] Unadjusted 1 micron middle section images of four hair bundles per ML1 neuromast of larvae from TG treated and untreated groups were analyzed using Image J software version v. […] Quantification of YFP fluorescence intensity was carried out as described in the previous experiment for unconventional trafficking of hCLRN1^N48K-YFP by hGRASP55 cargos. […]
Arthemisinin (ART, 100 mg, Sigma-Aldrich, #361593) in 100% DMSO was diluted in E3 medium to make the final concentration. […] Quantification of YFP fluorescence intensity was carried out as described in the previous experiment for unconventional trafficking of hCLRN1^N48K-YFP by hGRASP55 cargos. […]

**Q.** What does the source list for `C[C@@H]1CC[C@H]2[C@@H](C)C(=O)O[C@@H]3O[C@@]4(C)CC[C@@H]1[C@]32OO4` [ART, Artemisinin]?
**A.** YFP intensity in the bundle compared to untreated control ([1]; exposure 2 h): —; YFP intensity in the bundle compared to untreated control ([1]; exposure 4 h): —; YFP intensity in the bundle compared to untreated control ([1]; exposure 8 h): —; Larvae survival ([2]; ART 0.1 μM, exposure 1 h): S; Larvae survival ([2]; ART 0.1 μM, exposure 2 h): S; Larvae survival ([2]; ART 0.1 μM, exposure 4 h): S; Larvae survival ([2]; ART 0.1 μM, exposure 6 h): S; Larvae survival ([2]; ART 0.1 μM, exposure 8 h): S; Larvae survival ([2]; ART 0.1 μM, exposure 10 h): S; Larvae survival ([2]; ART 0.1 μM, post-exposure recovery time 10 h): S; Larvae survival ([2]; ART 0.1 μM, post-exposure recovery time 24 h): S; Larvae survival ([2]; ART 0.1 μM, post-exposure recovery time 48 h): S; Larvae survival ([2]; ART 0.25 μM, exposure 1 h): S; Larvae survival ([2]; ART 0.25 μM, exposure 2 h): S; Larvae survival ([2]; ART 0.25 μM, exposure 4 h): S; Larvae survival ([2]; ART 0.25 μM, exposure 6 h): S; Larvae survival ([2]; ART 0.25 μM, exposure 8 h): S; Larvae survival ([2]; ART 0.25 μM, exposure 10 h): S; Larvae survival ([2]; ART 0.25 μM, post-exposure recovery time 10 h): S; Larvae survival ([2]; ART 0.25 μM, post-exposure recovery time 24 h): S; Larvae survival ([2]; ART 0.25 μM, post-exposure recovery time 48 h): S; Larvae survival ([2]; ART 0.4 μM, 4 hours exposure group, post-exposure recovery time 10 h): S; Larvae survival ([2]; ART 0.4 μM, 4 hours exposure group, post-exposure recovery time 24 h): S; Larvae survival ([2]; ART 0.4 μM, 4 hours exposure group, post-exposure recovery time 48 h): S; Larvae survival ([2]; ART 0.4 μM, exposure 1 h): S; Larvae survival ([2]; ART 0.4 μM, exposure 2 h): S; Larvae survival ([2]; ART 0.4 μM, exposure 4 h): S; Larvae survival ([2]; ART 0.4 μM, exposure 6 h): S/L

**Q.** Which Lethality to larvae [3] does the source give for `C/C=C(/C)C(=O)O[C@H]1C(C)=C2[C@H]([C@@H]1OC(=O)CCCCCCC)[C@@](C)(OC(C)=O)C[C@H](OC(=O)CCC)[C@@]1(O)[C@H]2OC(=O)[C@@]1(C)O` [TG, Thapsigargin] here?
**A.** lethal
